Key:
physchem = assay: physchem
Description: The coating may also include binders or small molecules designed to optimize the tissue solubility of the drug coating, to produce a desired cohesiveness in the drug coating, and a desired drug release rate in the implanted stent.

[1] = in vitro drug elution in PBS from platinum-coated stent; type: physicochemical; conditions: 252 μg on platinum-plated anchoring layer stent, by day 34
Description: FIG. 7 is an elution profile in PBS of the drug Biolimus A-9 from the stent of the invention as measured by the total amount of drug released in μg over cumulative time in hours.
It will be appreciated that the actual rate of drug release in vivo will be much greater, e.g., the bulk of the drug released will be released within the first few days following implantation, due to the greater hydrophobicity of the cell-membrane environment in vivo. However, the in vitro release in a purely aqueous medium provides a useful standard for formulating the drug coating, to achieve an effective drug release rate in vivo and also to achieve, a desired drug-layer cohesiveness.

[2] = test system: restenosis in porcine coronary arteries; assay: swine restenosis animal model, stent implantation; type: in vivo; conditions: 28 days after implantation, platinum anchoring layer stent with vs without drug coating
Description: Briefly, studies conducted in support of the present invention compared the extent of restenosis at 28 days following stent implantation, in metal stents having an electroplated platinum anchoring layer, with or without a drug coating of Biolimus A-9.

[3] = cited from earlier work

SMILES: CCOCCO[C@@H]1CC[C@@H](C[C@@H](C)[C@@H]2CC(=O)[C@H](C)/C=C(\C)[C@@H](O)[C@@H](OC)C(=O)[C@H](C)C[C@H](C)/C=C/C=C/C=C(\C)[C@@H](OC)C[C@@H]3CC[C@@H](C)[C@@](O)(O3)C(=O)C(=O)N3CCCC[C@H]3C(=O)O2)C[C@H]1OC [Biolimus A-9]
- log P (log partition coefficient between octanol and water) (physchem): 7.63
- fraction of drug eluted from the stent [1]: about one-third
- extent of restenosis [2]: significantly reduced the extent of restenosis

SMILES: CO[C@H]1C[C@@H]2CC[C@@H](C)[C@@](O)(O2)C(=O)C(=O)N2CCCC[C@H]2C(=O)O[C@H]([C@H](C)C[C@@H]2CC[C@@H](OCCO)[C@H](OC)C2)CC(=O)[C@H](C)/C=C(\C)[C@@H](O)[C@@H](OC)C(=O)[C@H](C)C[C@H](C)/C=C/C=C/C=C/1C [everolimus]
- log P (log partition coefficient between octanol and water) (physchem): 6.70

SMILES: CC(=O)O[C@H]1C(=O)[C@@]2(C)[C@H]([C@H](OC(=O)c3ccccc3)[C@]3(O)C[C@H](OC(=O)[C@H](O)[C@@H](NC(=O)c4ccccc4)c4ccccc4)C(C)=C1C3(C)C)[C@]1(OC(C)=O)CO[C@@H]1C[C@@H]2O [paclitaxel]
- chromatographic logP (physchem): 4.68

SMILES: CCc1ccc(CCOc2ccc(CC3SC(=O)NC3=O)cc2)nc1 (stereo not drawn) [pioglitazone]
- solubility in acetone ([3]; acetone): slightly soluble
- solubility in ethanol ([3]; ethanol): slightly soluble
- solubility in water ([3]; water): insoluble

SMILES: CO[C@H]1C[C@@H]2CC[C@@H](C)[C@@](O)(O2)C(=O)C(=O)N2CCCC[C@H]2C(=O)O[C@H]([C@H](C)C[C@@H]2CC[C@@H](O)[C@H](OC)C2)CC(=O)[C@H](C)/C=C(\C)[C@@H](O)[C@@H](OC)C(=O)[C@H](C)C[C@H](C)/C=C/C=C/C=C/1C [rapamycin]
- log P (log partition coefficient between octanol and water) (physchem; modified HPLC method (Lombardo et al.)): 6.51

Source: US8252047B2, “Drug-delivery endovascular stent and method for treating restenosis” (Biosensors International Group, Ltd., priority 2004, dated 2012)
